Here are results for twelve compounds from paper PMC3479139, “Diverse Small Molecule Inhibitors of Human Apurinic/Apyrimidinic Endonuclease APE1 Identified from a Screen of a Large Public Collection” (PLoS ONE, 2012).

For one test, the target named is T1, E. coli Endo IV (Escherichia coli, UniProt P0A6C1).
T1 construct: made in house
The test is described as follows: E. coli Endo IV profiling counterscreen.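 Also: selectivity counterscreen of candidate APE1 inhibitors against the bacterial endonuclease Endo IV, run in the same assay format as the primary APE1 high-throughput screen.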 The class given is biochemical. As to conditions: read-out: EndoIV IC50. Background: The purpose of a counterscreen is to sort out artefacts and off-target activity.

The target in test [1] is T2, APE1 (Homo sapiens, UniProt P27695).
T2 construct: made in house
The test is described as follows: Gel-based APE1 incision assay with fluorescence (TAMRA) detection. The class given is biochemical.
Protocol: To test the compounds’ inhibitory activity after the primary screen, two assays designed to monitor the cleavage of substrate to product through electrophoretic separation were utilized. The radiotracer incision assay, utilizing a ^32P-labeled substrate, was performed essentially as described [21], [31], [32]. Incision reactions utilizing ^32P-labeled substrate were carried out for 5 min at 37°C. After the addition of an equal volume of stop buffer (0.05% bromophenol blue and xylene cyanol, 20 mM EDTA, 95% formamide), the substrate and product were separated on a standard polyacrylamide denaturing gel and quantified by PhosphorImager analysis [32]. […] APE1 cleavage of the substrate results in a 18-mer TAMRA-labeled fragment which was separated by a non-denaturing polyacrylamide gel electrophoresis and quantitated in a Gel Doc XR imaging system, BioRad (Hercules, CA). The advantage of this assay is that it can be used in a relatively high throughput mode with the inhibitors tested at a range of concentrations (0.17 µM to 125 µM was used here). APE1 (0.15 nM) was added to a reaction mixture of 20 µL containing assay buffer (40 mM HEPES pH 7.5, 50 mM NaCl, 1 mM MgCl2 and 2 mM DTT), and labeled ds DNA substrate (final 75 nM). The mixture was incubated at RT for 15 min, and the reaction was stopped by the addition 20 µL of 2X dye stop solution (10% glycerol, 20 mM EDTA and bromophenol blue). Then 10 µL of the mixture was resolved on 20% polyacrylamide gel in 1X Tris-borate EDTA running buffer at 250 V for 40 min.
To eliminate false positive hits, all 595 confirmed molecules were tested for their ability to inhibit APE1 incision activity using biochemical assays that involve electrophoretic separation of the substrate and cleavage product.

Test [2] addresses T2, APE1. The test is described as follows: Fluorescence polarization (FP) displacement assay of APE1 binding to AP-DNA probe.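 Also: TAMRA 5′-labeled duplex DNA with THF abasic site (5 nM) and APE1 (20 nM), Mg2+-free buffer, 15 min at room temperature, inhibition seen as lowered polarization.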 As to conditions: read-out: FP IC50.
In test [3] the target is T2, APE1. The test is described as follows: Fluorogenic kinetic qHTS APE1 incision assay (primary screen and retest of cherrypicked samples).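 Also: purified APE1 cleaving a fluorophore/dark-quencher labelled 17-mer duplex DNA bearing a tetrahydrofuran AP site, fluorescence rise followed kinetically over the first 2 min, inhibition normalized to controls.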 The class given is biochemical. On the technique in general: In qHTS, concentration-response curves come from the screen itself.
Test [4] deals with double-stranded 17-mer DNA fragment. The test is described as follows: ThO (Thiazole Orange) DNA displacement assay.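 Also: miniaturized displacement of the intercalating dye from unlabeled duplex DNA, used to flag nonspecific DNA binders, chiefly intercalators, groove binders may be missed.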 The settings on record: read-out: ThO-DNA binding IC50. The format is binding.
Where [5] appears, read: entries 113-223: fluorophore detection, estimated IC50, read-out: Gel-based electrophoretic separation assay with fluorophore detection, estimated IC50 (column headed Radiotracer Assay (%Activity)).
Setting [6] is: initial quantitative high-throughput screen, read-out: APE1 qHTS IC50.
The mark [7] stands for this setting: retest of cherrypicked sample, read-out: APE1 Retest IC50.
Where [8] appears, read: estimated IC50, fluorophore detection, entries 113-223, read-out: F-PAGE Assay IC50.

T2 sequence (P27695 whole entry): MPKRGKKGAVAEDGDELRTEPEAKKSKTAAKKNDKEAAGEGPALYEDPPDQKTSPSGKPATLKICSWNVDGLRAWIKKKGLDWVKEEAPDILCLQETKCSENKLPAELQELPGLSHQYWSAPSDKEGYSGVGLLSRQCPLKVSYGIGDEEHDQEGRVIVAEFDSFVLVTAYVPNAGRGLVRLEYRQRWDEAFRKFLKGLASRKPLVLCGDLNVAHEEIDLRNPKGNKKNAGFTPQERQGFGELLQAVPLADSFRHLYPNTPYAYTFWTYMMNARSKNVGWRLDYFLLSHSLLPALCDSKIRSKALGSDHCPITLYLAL
Description for E. coli Endo IV: In order to screen out nonselective compounds, such as non-specific DNA binders and inhibitors of related enzymes, we used a miniaturized ThO DNA displacement assay and a counterscreen against the bacterial endonuclease E. coli Endo IV, respectively, following the previously published protocols [21].
To probe the selectivity of the candidate APE1 inhibitors, we tested them against E. coli EndoIV [36], employing the same assay as used in the HTS.

For the compound `NS(=O)(=O)c1cccc(NC(=O)c2ccc3nc[nH]c3c2)c1` [MLS001177378], the IC50 at E. coli Endo IV is greater than 57 µM; at APE1 [1] (setting [5]) it was 12.6 µM; at APE1 [2], greater than 57 µM; on APE1 [3] (setting [6]), 26.7 µM; on APE1 [3] (setting [7]), 45.7 µM; in test [4], 32.4 µM.

In the case of `NS(=O)(=O)c1ccc(NC(=O)CSc2nnc(NC3CC3)s2)cc1` [MLS002169032], the IC50 was greater than 57 µM at E. coli Endo IV; 6.3 µM on APE1 [1] (setting [8]); greater than 57 µM at APE1 [2]; 10.6 µM at APE1 [3] (setting [6]); 10.2 µM at APE1 [3] (setting [7]); greater than 57 µM in test [4].

As to `COc1ccc(NC(=O)c2cc(-c3ccco3)nc3ccccc23)cn1` [MLS002164354], the IC50 at E. coli Endo IV was 22.9 µM; on APE1 [1] (setting [8]), 7.1 µM; on APE1 [2] it was 36.3 µM; at APE1 [3] (setting [6]), 11.9 µM; on APE1 [3] (setting [7]), 14.5 µM; in test [4], greater than 57 µM.

For the compound `O=S(=O)(Nc1ccccc1)c1cccc2nsnc12` [MLS000999698], the IC50 on E. coli Endo IV is greater than 57 µM; at APE1 [1] (setting [8]) it was 10 µM; on APE1 [2], 40.8 µM; at APE1 [3] (setting [6]) it was 7.5 µM; on APE1 [3] (setting [7]) it was 22.9 µM; in test [4], greater than 57 µM.

With `O=C(C[C@@H]1C/C=C\C[C@H](NC(=O)OCC2c3ccccc3-c3ccccc32)C(=O)OC[C@@H]2CCCN2C1=O)NCCO` [MLS002320455], the IC50 on E. coli Endo IV was greater than 57 µM; at APE1 [1] (setting [5]), 22.4 µM; on APE1 [2], greater than 57 µM; at APE1 [3] (setting [6]), 9.5 µM; on APE1 [3] (setting [7]) it was 10.2 µM; in test [4] it was greater than 57 µM.

On to `NC(=O)c1ccc(NC(=O)COC(=O)c2cc3c(s2)CCC3)cc1` [MLS002251079], for which the IC50 was greater than 57 µM at E. coli Endo IV; 3.5 µM on APE1 [1] (setting [8]); 18.2 µM at APE1 [2]; 3 µM at APE1 [3] (setting [6]); 12.9 µM at APE1 [3] (setting [7]); greater than 57 µM in test [4].

For `CC(=O)Nc1ccc(S(=O)(=O)NCCC(=O)OCC(=O)N2CCN(C(=O)c3ccco3)CC2)cc1` [MLS001078987], the IC50 is greater than 57 µM on E. coli Endo IV; 22.4 µM at APE1 [1] (setting [5]); 20.4 µM on APE1 [2]; 16.8 µM at APE1 [3] (setting [6]); greater than 57 µM in test [4].

For `Cc1ccc(NC(=O)CN(C)C(=O)c2cc(-c3ccco3)nc3ccccc23)cc1` [MLS001099510], the IC50 is greater than 57 µM on E. coli Endo IV; 3.5 µM on APE1 [1] (setting [8]); greater than 57 µM at APE1 [2]; 5.3 µM on APE1 [3] (setting [6]); 22.9 µM at APE1 [3] (setting [7]); greater than 57 µM in test [4].

Take `O=C(c1cccc(-n2cccc2)c1)N1CCN(S(=O)(=O)c2ccccc2)CC1` [MLS001139594]: the IC50 at E. coli Endo IV is greater than 57 µM; at APE1 [1] (setting [8]), 2.5 µM; at APE1 [2], greater than 57 µM; at APE1 [3] (setting [6]), 1.5 µM; on APE1 [3] (setting [7]), 11.5 µM; in test [4], greater than 57 µM.

Regarding `COc1ccccc1N(CC(=O)NCc1ccco1)S(=O)(=O)c1ccc(C)cc1` [MLS001219746], the IC50 was greater than 57 µM on E. coli Endo IV; 8.9 µM at APE1 [1] (setting [8]); greater than 57 µM on APE1 [2]; 21.2 µM on APE1 [3] (setting [6]); 16.2 µM at APE1 [3] (setting [7]); greater than 57 µM in test [4].

For the compound `COC(=O)c1ccn(CC(=O)NC2CCCCC2)n1` [MLS001030262], the IC50 at E. coli Endo IV was greater than 57 µM; on APE1 [1] (setting [8]) it was 5.6 µM; on APE1 [2], greater than 57 µM; at APE1 [3] (setting [6]), 29.9 µM; at APE1 [3] (setting [7]), 12.9 µM; in test [4], greater than 57 µM.

For the compound `COc1ccc(NC(=O)CN(C)C(=O)c2cccc(-n3cccc3)c2)cc1` [MLS001097639], the IC50 on E. coli Endo IV is greater than 57 µM; on APE1 [1] (setting [8]) it was 3.5 µM; on APE1 [2], greater than 57 µM; at APE1 [3] (setting [6]) it was 2.4 µM; on APE1 [3] (setting [7]), 18.2 µM; in test [4], greater than 57 µM.
